We go through one substance from US4617290A, “Synergistine derivatives, their preparation and pharmaceutical compositions containing them” (Rhone-Poulenc Sante, priority 1983, dated 1986).

The format of this data set is physicochemical. The procedure: The new compounds of the invention have the considerable advantage of being soluble or capable of being solubilized in water, either in the form of parent substances or in the form of salts, at therapeutically useful levels, while at the same time retaining the general spectrum of antibacterial activity of synergistines. They are especially active in vitro against Staphylococcus aureus Smith at concentrations of between 8 and 125 μg/ml. A 10% aqueous solution of 5γ-deoxy-5γ-(3-dimethylaminopropyl)aminopristinamycin IA (product A) in the form of the hydrochloride is obtained with: […]

As to “5γ-[N-(carboxymethyl)-methylamino]-5γ-deoxypristinamycin IA [product K]”, the “concentration of aqueous solution obtained” value was determined as 2%.
